Laboratory results published in US20090076067A1, “PHARMACEUTICAL COMPOSITION COMPRISING AZARHODACYANINE COMPOUND AS ACTIVE INGREDIENT” (priority 2005, published 2009).
Where two headings read alike, the source gives them in different places.

What was measured:
Assay type in all cases: cell-based
[1] = Rat L6 cell proliferation inhibition test; conditions: read-out: EC50 cytotoxicity L6; for EC50 at 72 h: L6 cells (rat skeletal myoblasts), Table 1, Alamar Blue
[2] = tested on: Leishmania donovani (MHOM/ET/67/L82 strain); test: Leishmania protozoa proliferation inhibition screening test; conditions: for Selective toxicity: EC50 rat L6 cells / EC50 leishmania protozoa; for EC50: Leishmania donovani, read-out: EC50 Leishmania donovani
Protocol: In this experiment, Leishmania donovani (MHOM/ET/67/L82 strain) was used. The protozoa were successively cultured in Syrian Golden hamsters to obtain amastigote. The medium used in the experiment was SM medium having heat-treated fetal bovine serum 10% added, and pH prepared to 5.4. The culture was conducted under CO2 concentration 5% and temperature 37° C.
Either the compound of the invention or a positive control (miltefosine) was dissolved into DMSO to prepare test solution having predefined concentration. To each well of a 96-well culture plate, medium containing predetermined number of protozoa was added and the culture was pre-treated. The concentration of amastigote was determined by CASY cell analyze system (Scharfe GMBH Co., Germany). Subsequently, either test solution containing compound of the invention in predefined concentration or DMSO without compound was added. The test solution was duplicated.
The plate was cultured in an incubator for 72 hours, and the proliferation inhibition activity was examined. The activity was determined as follows. To each well, 10 μL Alamar blue aqueous solution was added, then cultured again for 2 hours. Then the culture plate was mounted on a fluorescence microplate reader (Spectramax Gemeni XS; Molecular Devices Corporation, U.S), and irradiated 536 nm excitation wavelength to determine […] at 588 nm. The leishmania infection rate of the sample containing the test compound and that of the control sample was calculated.
(§1) Using the protozoa infection rate thus obtained, the proliferation inhibition rate was calculated according to the following equation to determine 50% proliferation inhibition concentration (EC50).
(§2) Proliferation inhibition rate(%)={1−(b−a)/(c−a)}×100
a: initial infection rate b: infection rate of test compound solution c: infection rate of the control

[3] = tested on: Plasmodium Falciparum k1 strain; test: Chloroquine-resistant tropical malaria protozoa proliferation inhibition screening test; conditions: for Selective toxicity: EC50 rat L6 cells / EC50 Chloroquine-resistant malaria protozoa; for EC50: Plasmodium falciparum
Summary of the method: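 Infected erythrocytes (0.15% initial infection, 2.5% hematocrit) in RPMI-1640 with 5% human serum were cultured 48 h at 37 °C under 3% O2/4% CO2 with compound, then 24 h with 0.5 μCi [3H]hypoxanthine.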

[4] = tested on: Trypanosoma brucei rhodensiense (STIB 900 strain); test: African trypanosoma protozoa proliferation inhibition screening test; conditions: for Selective toxicity: EC50 rat L6 cells / EC50 African trypanosoma protozoa; for EC50: Trypanosoma brucei, STIB900, read-out: EC50 Trypanosoma brucei rhod.; for EC50 / EC50 Trypanosoma brucei rhod.: STIB 900 bloodstream form, 72 hours, Alamar blue
Protocol: In this experiment, bloodstream form trypomastigote of Trypanosoma brucei rhodensiense (STIB 900 strain) was used. The medium used in the experiment was prepared as follows: to filter-sterilized MEM medium, 25 mM N-2-hydroxyethylpiperazine-2-ethane sulfonate (HEPES), 1 g/L glucose, 1% MEM nonessential amino acid, 0.2 mM 2-mercaptoethanol, 2 mM pyruvic calcium salt, 0.1 mM hypoxanthine, and 15% heat-treated horse serum were added. The protozoa was cultured under atmosphere of CO2 concentration 5% and temperature 37° C.
Either the compound of the invention or a positive control (melarsoprol) was dissolved into dimethylsulfoxide (DMSO) to prepare test solution having predefined concentration. To each well in a 96-well culture plate, medium containing 8×10^3 protozoa, and either test solution containing the test compound at predefined concentration or DMSO without compound was added. Then medium was added to achieve 100 μL. The test solution was duplicated.
The culture plate was cultured in an incubator for 72 hours, and the proliferation inhibition activity was examined. The activity was determined as follows. To each well, 10 μL Alamar blue water solution was added, then the plate was again cultured for 2 hours. Then the culture plate was mounted on a fluorescence microplate reader (Spectramax Gemeni XS; Molecular Devices Corporation, U.S.), and irradiated with 536 nm excitation wavelength to determine fluorescence at 588 nm. The trypanosoma infection rate of the sample containing the test composition and that of the control sample was calculated.
as §1, §2
a: initial infection rate b: infection rate of the test compound solution c: infection rate of the control

[5] = amastigote, 72 hours, Alamar blue
[6] = chloroquine-resistant K1 strain, 3H-hypoxanthine uptake, read-out: EC50 P. falciparum K1
[7] = chloroquine-resistant K1 strain, 3H-hypoxanthine uptake

Row | SMILES | EC50 at 72 h [1] [µg/mL] | Selective toxicity [2] | EC50 [2, 5] [µg/mL] | Selective toxicity [3] | EC50 [3, 6] [µg/mL] | Selective toxicity [4] | EC50 [4] [µg/mL] | EC50 Leishmania donovani [2, 5] [µg/mL] | EC50 P. falciparum K1 [3, 7] [µg/mL] | EC50 Trypanosoma brucei rhod. [4] [µg/mL] | EC50 ([1]; Table 1, rat L6 cells, 72 hours, Alamar Blue) [µg/mL] | EC50 ([2]; 72 h) [µg/mL] | EC50 ([3]; K1, read-out: EC50 P. falciparum K1) [µg/mL]
1 | CCN1C(=O)/C(=C2\Sc3ccccc3N2C)S/C1=N\c1sc2cc(Cl)ccc2[n+]1C [Compound A-1] | 37.9 | 299 | 0.127 | 255 | 0.148 | 94 | 0.403 |  |  |  |  |  | 
2 | CCN1C(=O)/C(=C2\C=Cc3ccccc3N2C)S/C1=N\c1sc2cc(Cl)ccc2[n+]1C [Compound A-2] | 5.5 | 2800 | 0.002 | 2500 | 0.0022 | 72 | 0.076 |  |  |  |  |  | 
3 | CCN1C(=O)/C(=c2/s/c(=C3/C=CC=CN3C)c(=O)n2CC)S/C1=N\c1sc2cc(Cl)ccc2[n+]1C [Compound B-2] | 27 |  | 0.249 | 4495 | 0.006 | 258 | 0.104 |  |  |  |  |  | 
4 | CCN1C(=O)/C(=c2/s/c(=C3/SCCN3C)c(=O)n2CC)S/C1=N\c1sc2cc(Cl)ccc2[n+]1C [Compound B-12] | 6.9 | 41 | 0.167 | 507 | 0.0136 | 50 | 0.138 |  |  |  |  |  | 
5 | CCN1C(=O)/C(=c2/s/c(=C3/C=CC=CN3C)c(=O)n2CC)S/C1=N\c1sc2cc(OC)ccc2[n+]1C [Compound B-28] |  |  |  |  |  |  |  | 0.037 | 0.007 | 0.042 |  |  | 
6 | CCN1C(=O)/C(=c2/s/c(=C3/SCCN3C)c(=O)n2CC)S/C1=N\c1sc2cc(OC)ccc2[n+]1C [Compound B-29] |  |  |  |  |  |  |  | >0.04 | 0.006 | 0.023 |  |  | 
7 | CCN1C(=O)/C(=c2/s/c(=C3/C=CC=CN3C)c(=O)n2CC)S/C1=N\c1sc2ccccc2[n+]1C [Compound B-30] |  |  |  |  |  |  |  | 0.11 | 0.0119 | 0.0625 |  |  | 
8 | CCN1C(=O)/C(=c2/s/c(=C3/SCCN3C)c(=O)n2CC)S/C1=N\c1sc2cc(F)ccc2[n+]1C [Compound B-33] |  |  |  |  |  |  |  | 0.2015 | 0.0167 | 0.1485 |  |  | 
9 | CCn1c(=O)/c(=C2\SCCN2C)s/c1=C1\S/C(=N\c2sc3cc(Cl)ccc3[n+]2C)N(C(C)C)C1=O [Compound B-37] | 1.44 |  |  | 160 | 0.009 | 19 | 0.052 |  |  |  |  |  | 
10 | CN1/C(=c2\s/c(=C\c3cccc[n+]3CCC(=O)O)n(CC3CO3)c2=O)Sc2ccccc21 (stereo not drawn) [Compound S-3, reference compound] |  | >170 |  | >320 |  | >15 | 6.1 |  |  |  | > 90 | 0.53 | 0.28
